Assay results taken from ChEMBL document CHEMBL1201862, “PubChem BioAssay data set” (2004).
Calls of active or inactive are those of the source.

Experiments:
[1] = test system: HEK293; experiment: HEK cell cytotoxicity by LDH release, dose response, cytotoxicity control for IDE activator project, fluorescence, HEK cells (AID 588440); type: functional, cell-based; settings: Homo sapiens;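 also: cytotoxicity by LDH release measuring loss of membrane integrity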
[2] = target: T1, Insulin-degrading enzyme (Homo sapiens, UniProt P14735); experiment: activators of recombinant IDE enzyme, dose response, counter-screen for IDE activator project, biochemical, fluorescence polarization (AID 588681)
T1 sequence (P14735 whole entry): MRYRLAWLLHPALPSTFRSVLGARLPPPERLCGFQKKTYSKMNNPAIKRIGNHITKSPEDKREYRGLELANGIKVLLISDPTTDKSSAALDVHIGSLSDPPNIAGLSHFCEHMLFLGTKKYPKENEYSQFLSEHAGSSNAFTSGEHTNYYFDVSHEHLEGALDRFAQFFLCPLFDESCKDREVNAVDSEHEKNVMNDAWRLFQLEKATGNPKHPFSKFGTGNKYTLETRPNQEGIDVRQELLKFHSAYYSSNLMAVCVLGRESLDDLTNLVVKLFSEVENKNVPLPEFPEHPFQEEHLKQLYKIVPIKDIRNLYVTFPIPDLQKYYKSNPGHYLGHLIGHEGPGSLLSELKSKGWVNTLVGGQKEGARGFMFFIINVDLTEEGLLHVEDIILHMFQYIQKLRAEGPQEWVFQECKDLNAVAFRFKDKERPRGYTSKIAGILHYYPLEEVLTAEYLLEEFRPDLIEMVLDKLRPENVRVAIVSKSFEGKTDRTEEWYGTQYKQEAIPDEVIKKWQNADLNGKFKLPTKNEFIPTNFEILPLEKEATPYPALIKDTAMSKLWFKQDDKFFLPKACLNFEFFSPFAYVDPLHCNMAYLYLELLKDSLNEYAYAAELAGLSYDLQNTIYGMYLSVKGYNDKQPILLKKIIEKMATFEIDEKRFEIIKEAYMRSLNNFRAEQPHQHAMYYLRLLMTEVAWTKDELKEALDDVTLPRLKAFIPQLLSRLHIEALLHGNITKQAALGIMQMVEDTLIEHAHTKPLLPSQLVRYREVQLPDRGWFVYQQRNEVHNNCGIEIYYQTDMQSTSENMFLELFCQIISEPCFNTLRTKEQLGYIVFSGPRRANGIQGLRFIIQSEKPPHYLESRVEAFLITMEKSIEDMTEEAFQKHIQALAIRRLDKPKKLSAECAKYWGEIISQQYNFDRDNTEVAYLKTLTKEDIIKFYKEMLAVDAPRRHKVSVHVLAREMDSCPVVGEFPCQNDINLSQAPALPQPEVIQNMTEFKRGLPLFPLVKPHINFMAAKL

[3] = target: Beta-lactamase (Pseudomonas aeruginosa, UniProt Q79MP6);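 also: biochemical dose-response test of metallo-beta-lactamase enzyme inhibition, read out by epi-absorbance; purified recombinant IMP-1 metallo-beta-lactamase with nitrocefin as substrate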
Sequence of Beta-lactamase (Pseudomonas aeruginosa, UniProt Q79MP6) (Q79MP6 whole entry): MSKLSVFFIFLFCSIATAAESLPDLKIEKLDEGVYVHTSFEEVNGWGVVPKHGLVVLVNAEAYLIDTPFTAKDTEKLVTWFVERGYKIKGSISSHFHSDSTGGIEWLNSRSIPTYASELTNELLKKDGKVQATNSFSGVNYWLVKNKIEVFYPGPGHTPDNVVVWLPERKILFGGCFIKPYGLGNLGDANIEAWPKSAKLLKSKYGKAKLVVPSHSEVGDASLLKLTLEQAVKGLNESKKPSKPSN

[4] = target: G-protein coupled receptor 35 (Homo sapiens, UniProt Q9HC97); experiment: GPR35 antagonists blocking zaprinast-driven arrestin recruitment, primary screen, imaging, U2OS, beta-arrestin-GFP, zaprinast agonist (AID 2058); type: functional;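 also: antagonist potency meaning inhibition of agonist-induced arrestin redistribution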
Sequence of G-protein coupled receptor 35 (Q9HC97 whole entry): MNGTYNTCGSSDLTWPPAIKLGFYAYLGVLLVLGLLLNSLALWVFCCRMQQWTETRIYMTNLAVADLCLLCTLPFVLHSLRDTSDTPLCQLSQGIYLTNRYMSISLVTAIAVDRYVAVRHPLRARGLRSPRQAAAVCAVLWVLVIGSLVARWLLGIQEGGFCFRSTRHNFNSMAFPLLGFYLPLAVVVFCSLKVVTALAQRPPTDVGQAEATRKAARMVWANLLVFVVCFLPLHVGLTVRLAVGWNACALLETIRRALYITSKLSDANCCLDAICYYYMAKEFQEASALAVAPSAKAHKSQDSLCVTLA

[5] = test system: HEK293; experiment: optical interference in Abeta FP readout, dose response, artefact control for IDE activator project, biochemical, fluorescence polarization (AID 588442); type: functional, cell-based; settings: Homo sapiens
[6] = target: Beta-lactamase (Salmonella choleraesuis (strain SC-B67), UniProt Q5J463)
Sequence of Beta-lactamase (Salmonella choleraesuis (strain SC-B67), UniProt Q5J463) (Q5J463 whole entry): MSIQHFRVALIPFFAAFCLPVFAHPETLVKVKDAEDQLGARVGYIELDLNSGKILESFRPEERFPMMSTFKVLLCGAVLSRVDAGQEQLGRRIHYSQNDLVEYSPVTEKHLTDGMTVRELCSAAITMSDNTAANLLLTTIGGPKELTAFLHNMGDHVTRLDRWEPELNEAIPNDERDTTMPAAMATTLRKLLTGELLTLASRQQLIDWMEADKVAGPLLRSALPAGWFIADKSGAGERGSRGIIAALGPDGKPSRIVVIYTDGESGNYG

[7] = target: T2, Calpain-2 catalytic subunit (Sus scrofa, UniProt P43367); experiment: pig calpain II inhibitor potency, dose response, biochemical, fluorogenic peptide substrate (AID 1420); type: functional
T2 sequence (P43367 whole entry): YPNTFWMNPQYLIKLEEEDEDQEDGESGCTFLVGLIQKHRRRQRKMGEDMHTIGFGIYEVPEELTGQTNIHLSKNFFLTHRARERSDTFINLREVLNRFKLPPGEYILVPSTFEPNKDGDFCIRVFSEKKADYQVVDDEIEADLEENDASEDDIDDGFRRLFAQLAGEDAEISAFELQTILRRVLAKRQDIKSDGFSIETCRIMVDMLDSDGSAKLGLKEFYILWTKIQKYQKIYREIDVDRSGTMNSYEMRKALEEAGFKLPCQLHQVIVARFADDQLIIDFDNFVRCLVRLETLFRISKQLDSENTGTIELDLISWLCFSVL

[8] = target: T1, Insulin-degrading enzyme; experiment: activators of endogenous IDE in HEK cells, dose response, cell-based, fluorescence polarization (AID 588439); type: functional
[9] = enhancers of respiration in Yfh1-depleted yeast, dose response, Friedreich's ataxia, plus single-dose screen (AID 1465); type: functional;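 also: yeast depleted of Yfh1p frataxin homolog grown on glycerol needing respiration; WST-1 tetrazolium dye reduction as measure of cellular dehydrogenase metabolic activity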
[10] = target: T3, Aurora kinase A (Homo sapiens, UniProt O14965); type: functional;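 also: value from the Navigating the Kinome kinase panel profiling, panel entry STK6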
T3 sequence (O14965 whole entry): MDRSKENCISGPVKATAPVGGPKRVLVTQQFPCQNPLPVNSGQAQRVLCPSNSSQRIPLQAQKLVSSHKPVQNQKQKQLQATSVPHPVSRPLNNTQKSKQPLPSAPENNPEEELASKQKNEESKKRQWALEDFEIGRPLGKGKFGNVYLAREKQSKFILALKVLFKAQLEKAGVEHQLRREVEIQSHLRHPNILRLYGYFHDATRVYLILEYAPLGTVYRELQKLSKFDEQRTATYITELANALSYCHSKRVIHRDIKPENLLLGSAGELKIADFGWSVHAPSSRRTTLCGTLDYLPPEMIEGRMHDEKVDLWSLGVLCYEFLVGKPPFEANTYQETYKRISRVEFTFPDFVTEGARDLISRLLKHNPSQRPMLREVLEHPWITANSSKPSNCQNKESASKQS

[11] = target: Aurora kinase B (Homo sapiens, UniProt Q96GD4); type: functional
Sequence of Aurora kinase B (Q96GD4 whole entry): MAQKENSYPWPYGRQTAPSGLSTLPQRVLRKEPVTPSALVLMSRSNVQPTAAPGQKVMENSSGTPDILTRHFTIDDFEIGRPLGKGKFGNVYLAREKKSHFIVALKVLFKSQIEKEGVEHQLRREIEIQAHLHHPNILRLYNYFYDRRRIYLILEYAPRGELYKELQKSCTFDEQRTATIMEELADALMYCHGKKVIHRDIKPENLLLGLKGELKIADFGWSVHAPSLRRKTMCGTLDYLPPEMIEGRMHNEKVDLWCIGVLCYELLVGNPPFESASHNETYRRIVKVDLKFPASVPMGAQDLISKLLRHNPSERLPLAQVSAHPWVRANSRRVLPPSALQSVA

[12] = target: ALK tyrosine kinase receptor (Homo sapiens, UniProt Q9UM73); type: functional;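 also: ALK tested as one member of a kinase panel screen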
Sequence of ALK tyrosine kinase receptor (Q9UM73 whole entry): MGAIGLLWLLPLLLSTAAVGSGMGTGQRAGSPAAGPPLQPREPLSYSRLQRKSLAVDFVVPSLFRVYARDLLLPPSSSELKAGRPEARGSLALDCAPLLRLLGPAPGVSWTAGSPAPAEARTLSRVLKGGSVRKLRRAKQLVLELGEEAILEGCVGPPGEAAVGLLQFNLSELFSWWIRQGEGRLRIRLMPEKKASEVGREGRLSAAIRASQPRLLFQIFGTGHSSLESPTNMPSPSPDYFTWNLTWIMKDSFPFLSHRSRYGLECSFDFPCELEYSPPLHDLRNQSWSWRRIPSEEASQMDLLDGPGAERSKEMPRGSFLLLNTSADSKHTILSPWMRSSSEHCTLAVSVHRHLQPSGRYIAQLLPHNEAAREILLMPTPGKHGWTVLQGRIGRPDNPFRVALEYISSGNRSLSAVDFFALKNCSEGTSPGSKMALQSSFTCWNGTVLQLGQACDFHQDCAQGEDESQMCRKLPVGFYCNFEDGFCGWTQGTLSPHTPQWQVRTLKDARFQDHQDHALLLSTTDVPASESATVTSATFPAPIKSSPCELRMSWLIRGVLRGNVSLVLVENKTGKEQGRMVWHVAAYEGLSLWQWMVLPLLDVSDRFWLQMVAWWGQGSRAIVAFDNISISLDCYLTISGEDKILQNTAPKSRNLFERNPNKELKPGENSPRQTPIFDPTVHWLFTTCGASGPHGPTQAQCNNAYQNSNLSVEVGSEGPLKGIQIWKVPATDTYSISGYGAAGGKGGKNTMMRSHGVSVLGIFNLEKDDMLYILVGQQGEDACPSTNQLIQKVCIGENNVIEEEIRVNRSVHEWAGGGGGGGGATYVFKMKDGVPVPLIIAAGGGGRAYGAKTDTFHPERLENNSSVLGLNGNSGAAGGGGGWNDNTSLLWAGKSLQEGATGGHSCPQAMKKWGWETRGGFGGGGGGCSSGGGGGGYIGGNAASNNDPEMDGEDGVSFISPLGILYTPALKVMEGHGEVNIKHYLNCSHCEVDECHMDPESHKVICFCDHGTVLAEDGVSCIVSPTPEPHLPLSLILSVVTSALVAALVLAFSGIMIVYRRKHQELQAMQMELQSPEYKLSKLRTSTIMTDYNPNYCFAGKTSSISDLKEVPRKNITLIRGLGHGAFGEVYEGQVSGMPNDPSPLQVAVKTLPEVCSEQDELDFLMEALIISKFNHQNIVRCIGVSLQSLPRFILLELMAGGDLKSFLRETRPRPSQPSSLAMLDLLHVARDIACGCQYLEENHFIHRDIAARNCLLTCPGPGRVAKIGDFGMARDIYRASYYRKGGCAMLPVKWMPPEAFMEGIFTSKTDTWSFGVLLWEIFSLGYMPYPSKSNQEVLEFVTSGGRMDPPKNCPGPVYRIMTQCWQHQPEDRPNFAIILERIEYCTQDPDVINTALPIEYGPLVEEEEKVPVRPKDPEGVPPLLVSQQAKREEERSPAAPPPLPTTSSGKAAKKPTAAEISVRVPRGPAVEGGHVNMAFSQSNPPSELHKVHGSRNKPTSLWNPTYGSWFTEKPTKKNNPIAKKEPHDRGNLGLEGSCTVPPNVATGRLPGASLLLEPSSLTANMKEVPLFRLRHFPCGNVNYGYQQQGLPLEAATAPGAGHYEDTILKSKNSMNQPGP

[13] = target: T4, Microphthalmia-associated transcription factor (Homo sapiens, UniProt O75030); experiment: TRPM1 promoter luciferase signal decrease, dose response, MITF inhibitor project, cell-based, SK-MEL-5, cherry-picked, set 3 (AID 493073); type: functional
T4 sequence (O75030 whole entry): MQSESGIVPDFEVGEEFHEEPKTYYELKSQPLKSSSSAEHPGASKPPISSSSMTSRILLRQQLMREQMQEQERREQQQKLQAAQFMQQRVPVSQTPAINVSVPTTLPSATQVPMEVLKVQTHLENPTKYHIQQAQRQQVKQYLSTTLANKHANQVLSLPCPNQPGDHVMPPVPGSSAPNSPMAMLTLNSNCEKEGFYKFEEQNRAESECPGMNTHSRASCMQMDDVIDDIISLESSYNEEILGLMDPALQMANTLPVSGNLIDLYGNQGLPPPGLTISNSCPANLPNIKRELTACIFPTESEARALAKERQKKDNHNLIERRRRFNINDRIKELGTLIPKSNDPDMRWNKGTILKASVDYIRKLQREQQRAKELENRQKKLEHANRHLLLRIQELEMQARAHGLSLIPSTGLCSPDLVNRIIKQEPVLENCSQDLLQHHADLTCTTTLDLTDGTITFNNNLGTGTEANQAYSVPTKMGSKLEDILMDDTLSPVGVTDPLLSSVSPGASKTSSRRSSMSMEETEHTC

[14] = target: T5, Sentrin-specific protease 7 (Homo sapiens, UniProt Q9BQF6); type: functional;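 also: Luminescence-based dose-response confirmation of ultra-high-throughput screening hits, measuring inhibition of SENP7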
T5 sequence (Q9BQF6 whole entry): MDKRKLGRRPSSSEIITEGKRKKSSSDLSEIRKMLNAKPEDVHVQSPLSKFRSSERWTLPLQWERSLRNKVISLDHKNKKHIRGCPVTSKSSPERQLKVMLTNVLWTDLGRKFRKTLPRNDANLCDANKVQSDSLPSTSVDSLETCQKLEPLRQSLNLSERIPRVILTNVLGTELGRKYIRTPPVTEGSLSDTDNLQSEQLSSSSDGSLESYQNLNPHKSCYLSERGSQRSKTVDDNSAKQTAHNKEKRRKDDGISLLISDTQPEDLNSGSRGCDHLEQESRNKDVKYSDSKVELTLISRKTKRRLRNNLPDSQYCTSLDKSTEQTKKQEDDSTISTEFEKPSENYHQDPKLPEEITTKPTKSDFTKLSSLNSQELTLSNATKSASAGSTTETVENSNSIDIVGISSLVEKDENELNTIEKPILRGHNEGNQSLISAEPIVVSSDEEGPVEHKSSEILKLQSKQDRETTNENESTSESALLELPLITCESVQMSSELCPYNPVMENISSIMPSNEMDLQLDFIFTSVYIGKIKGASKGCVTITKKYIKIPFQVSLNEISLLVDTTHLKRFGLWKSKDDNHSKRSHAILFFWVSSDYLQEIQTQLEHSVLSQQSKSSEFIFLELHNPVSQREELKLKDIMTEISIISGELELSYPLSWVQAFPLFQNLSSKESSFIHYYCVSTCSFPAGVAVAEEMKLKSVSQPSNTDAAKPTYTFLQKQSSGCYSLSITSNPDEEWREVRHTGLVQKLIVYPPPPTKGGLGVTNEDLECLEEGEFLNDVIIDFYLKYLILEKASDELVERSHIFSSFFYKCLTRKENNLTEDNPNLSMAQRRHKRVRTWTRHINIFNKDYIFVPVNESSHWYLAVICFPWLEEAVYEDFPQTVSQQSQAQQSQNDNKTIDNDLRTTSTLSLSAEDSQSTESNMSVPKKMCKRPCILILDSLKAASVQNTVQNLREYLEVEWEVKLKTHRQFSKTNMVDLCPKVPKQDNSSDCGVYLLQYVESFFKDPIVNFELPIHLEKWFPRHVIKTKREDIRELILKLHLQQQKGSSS

[15] = target: Apoptotic protease-activating factor 1 (Homo sapiens, UniProt O14727); type: functional
Sequence of Apoptotic protease-activating factor 1 (O14727 whole entry): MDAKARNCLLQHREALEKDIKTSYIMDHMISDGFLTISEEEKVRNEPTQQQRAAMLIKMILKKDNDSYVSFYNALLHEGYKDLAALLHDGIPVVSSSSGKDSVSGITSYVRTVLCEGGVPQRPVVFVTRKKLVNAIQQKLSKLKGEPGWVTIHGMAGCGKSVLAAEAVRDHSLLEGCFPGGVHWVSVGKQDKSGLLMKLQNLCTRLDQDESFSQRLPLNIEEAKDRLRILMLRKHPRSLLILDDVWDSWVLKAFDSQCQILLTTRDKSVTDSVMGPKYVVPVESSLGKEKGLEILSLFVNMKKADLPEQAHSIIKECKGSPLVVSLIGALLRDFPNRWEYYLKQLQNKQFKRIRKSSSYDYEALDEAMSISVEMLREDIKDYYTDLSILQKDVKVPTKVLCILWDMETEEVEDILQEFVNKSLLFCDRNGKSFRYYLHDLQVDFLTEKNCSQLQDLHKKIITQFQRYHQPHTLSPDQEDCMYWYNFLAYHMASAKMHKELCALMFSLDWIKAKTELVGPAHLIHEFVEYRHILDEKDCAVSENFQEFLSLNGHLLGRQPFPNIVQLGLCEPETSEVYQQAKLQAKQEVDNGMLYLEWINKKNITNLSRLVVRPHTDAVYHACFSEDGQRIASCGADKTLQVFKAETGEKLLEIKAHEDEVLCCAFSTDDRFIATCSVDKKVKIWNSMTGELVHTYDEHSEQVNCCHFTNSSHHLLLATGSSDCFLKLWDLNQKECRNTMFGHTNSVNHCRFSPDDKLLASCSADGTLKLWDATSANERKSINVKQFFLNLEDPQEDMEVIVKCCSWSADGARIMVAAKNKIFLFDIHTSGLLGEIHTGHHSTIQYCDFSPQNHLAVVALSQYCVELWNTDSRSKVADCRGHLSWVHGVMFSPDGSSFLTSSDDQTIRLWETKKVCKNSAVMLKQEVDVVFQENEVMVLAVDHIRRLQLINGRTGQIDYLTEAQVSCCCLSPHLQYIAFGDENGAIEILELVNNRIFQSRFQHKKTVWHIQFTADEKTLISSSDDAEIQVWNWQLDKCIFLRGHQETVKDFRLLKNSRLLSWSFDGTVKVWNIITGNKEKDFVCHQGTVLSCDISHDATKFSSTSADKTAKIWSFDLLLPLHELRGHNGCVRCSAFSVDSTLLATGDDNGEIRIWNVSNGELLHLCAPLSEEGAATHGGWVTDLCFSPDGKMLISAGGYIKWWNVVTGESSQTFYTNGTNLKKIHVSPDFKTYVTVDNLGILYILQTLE

[16] = target: T6, Caspase-3 (Homo sapiens, UniProt P42574); type: functional;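 also: Dose-response selectivity test against caspase-3 for candidate inhibitors of sentrin-specific proteases (SENPs)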
T6 sequence (P42574 whole entry): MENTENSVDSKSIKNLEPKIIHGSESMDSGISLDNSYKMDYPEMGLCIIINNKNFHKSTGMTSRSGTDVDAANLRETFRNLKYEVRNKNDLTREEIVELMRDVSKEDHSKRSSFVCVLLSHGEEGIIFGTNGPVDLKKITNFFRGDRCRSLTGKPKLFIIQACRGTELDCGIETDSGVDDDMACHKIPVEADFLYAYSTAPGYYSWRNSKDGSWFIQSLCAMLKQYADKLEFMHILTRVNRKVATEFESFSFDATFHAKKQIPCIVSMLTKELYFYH

[17] = target: T7, Sentrin-specific protease 6 (Homo sapiens, UniProt Q9GZR1); type: functional;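 also: Luminescence-based dose-response confirmatory assay of SENP6 inhibition, following up an ultra-high-throughput screen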
T7 sequence (Q9GZR1 whole entry): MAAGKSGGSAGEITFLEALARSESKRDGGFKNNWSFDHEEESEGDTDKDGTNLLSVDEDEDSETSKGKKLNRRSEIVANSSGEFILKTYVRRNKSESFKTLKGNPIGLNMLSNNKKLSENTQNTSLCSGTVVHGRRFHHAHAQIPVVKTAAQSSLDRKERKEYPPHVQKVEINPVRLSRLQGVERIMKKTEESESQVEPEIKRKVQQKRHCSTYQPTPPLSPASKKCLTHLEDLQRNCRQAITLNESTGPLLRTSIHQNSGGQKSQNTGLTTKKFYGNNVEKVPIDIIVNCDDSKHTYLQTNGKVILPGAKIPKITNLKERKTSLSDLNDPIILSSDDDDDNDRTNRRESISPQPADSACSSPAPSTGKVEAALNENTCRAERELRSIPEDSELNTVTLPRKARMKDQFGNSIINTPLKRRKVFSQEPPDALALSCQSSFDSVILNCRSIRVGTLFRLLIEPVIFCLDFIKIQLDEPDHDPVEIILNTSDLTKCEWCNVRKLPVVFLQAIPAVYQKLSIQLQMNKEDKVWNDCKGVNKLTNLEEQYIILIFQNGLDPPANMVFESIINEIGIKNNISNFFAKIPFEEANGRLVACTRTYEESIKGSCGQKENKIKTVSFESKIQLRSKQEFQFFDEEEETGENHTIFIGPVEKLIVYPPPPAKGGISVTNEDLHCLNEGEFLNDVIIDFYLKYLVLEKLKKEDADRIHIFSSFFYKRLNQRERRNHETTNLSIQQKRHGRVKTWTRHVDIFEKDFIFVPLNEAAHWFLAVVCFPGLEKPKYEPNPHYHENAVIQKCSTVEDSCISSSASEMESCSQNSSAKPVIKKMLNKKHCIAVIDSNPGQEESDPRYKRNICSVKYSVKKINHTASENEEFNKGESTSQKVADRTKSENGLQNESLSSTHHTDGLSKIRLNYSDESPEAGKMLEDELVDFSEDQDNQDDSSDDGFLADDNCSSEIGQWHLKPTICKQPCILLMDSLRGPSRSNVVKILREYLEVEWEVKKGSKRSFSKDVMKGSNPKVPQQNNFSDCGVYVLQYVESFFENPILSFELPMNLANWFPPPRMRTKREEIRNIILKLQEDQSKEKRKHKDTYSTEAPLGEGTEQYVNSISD

[18] = target: T8, Sentrin-specific protease 8 (Homo sapiens, UniProt Q96LD8); type: functional;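 also: luminescence read-out of SENP8 inhibition, dose-response confirmation following an ultra-high-throughput screen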
T8 sequence (Q96LD8 whole entry): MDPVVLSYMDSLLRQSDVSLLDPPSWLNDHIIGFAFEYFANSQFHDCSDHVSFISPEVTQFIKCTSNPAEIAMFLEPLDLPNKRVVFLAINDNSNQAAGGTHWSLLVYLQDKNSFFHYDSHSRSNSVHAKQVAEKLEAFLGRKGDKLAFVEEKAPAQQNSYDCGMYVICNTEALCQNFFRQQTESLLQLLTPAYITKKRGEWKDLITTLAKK

CCN1CCN(C2=CC3=CC(=C(C#N)C#N)CCC3CC2)CC1 (configuration not stated)
IC50 [1]: > 89.2 µM (inactive)
EC50 [2]: > 54.7 µM (inactive)
IC50 [3]: 4.22 µM (active)
IC50 [4]: 1.67 µM (active)
EC50 [5]: > 54.7 µM (inactive)
IC50 [6]: 3.08 µM (active)
IC50 [7]: 30.6 µM (not active)
EC50 [8]: > 54.7 µM (inactive)
EC50 [9]: > 100 µM (active)

NC1CCN(C(=O)c2ccc3c(c2)[nH]c(=O)c2cccn23)CC1
Ki [10]: > 2 µM (inactive)
Ki [11]: 0.158 µM (active)
Ki [12]: > 3.16 µM (inactive)

CC(=O)NC1=C(N(C)C2CCS(=O)(=O)C2)C(=O)c2ccccc2C1=O (configuration not stated)
AC50 [13]: 21.2 µM (active)
IC50 [14]: 13 µM (active)
IC50 [15]: 22 µM (active)
IC50 [16]: 17 µM (active)
IC50 [17]: 5.25 µM (active)
IC50 [18]: 13.4 µM (active)

CC(=O)N1CCc2cc(S(=O)(=O)NCCC(=O)N3CCN(Cc4ccccc4)CC3)ccc21
IC50 [1]: > 89.2 µM (inactive)
EC50 [2]: > 54.7 µM (inactive)
EC50 [5]: > 54.7 µM (inactive)
EC50 [8]: > 54.7 µM (inactive)
